Where two headings read alike, the source gives them in different places.
Assays:
[1] = test system: Rice Plant Hopper (Nilaparvata lugens); assay: B.7 Rice plant hopper test on sprayed rice seedlings; type: in vivo; settings: 500 ppm, after 72 hours
Protocol: B.7 Rice Plant Hopper (Nilaparvata lugens)
(§1) Rice seedlings were cleaned and washed 24 hours before spraying. The active compounds were formulated in 50:50 acetone: water and 0.1% vol/vol surfactant (EL 620) was added. Potted rice seedlings were sprayed with 5 ml test solution, air dried, placed in cages and inoculated with 10 adults. Treated rice plants were kept at 28-29° C. and relative humidity of 50-60%. Percent mortality was recorded after 72 hours.

[2] = test system: Rice Green Leafhopper (Nephotettix virescens); assay: B.9 Rice green leafhopper test on sprayed rice seedlings; type: in vivo; settings: 500 ppm, after 72 hours
Protocol: B.9 Rice Green Leafhopper (Nephotettix virescens)
as §1, with “water,” for “water”

[3] = test system: Greenbug Aphid, Schizaphis graminum; assay: Test 13 - Activity against greenbug aphid, wheat seed treatment; type: in vivo; settings: single active, aphids counted 4 DAI
Protocol: Test 13—Activity Against Greenbug Aphid, Schizaphis graminum: Wheat seed treatment
Technical material was dissolved in acetone at sub-lethal doses. 50 μL of solution was added to a 20-ml scintillation vial, 15 wheat seeds were added, and the seeds were coated by vortexing the vial for 1 minute. The seeds were allowed to dry and planted later the same day. Seeds were planted individually in a moistened, fertilized soil mixture of 1:1 North Carolina loamy sand (Sandhill soil):play sand in 40.32 cm^2 pots. Pots were arranged in a randomized complete block design in the greenhouse and top-watered daily. Plant emergence and shoot phytotoxicity were evaluated 4, 7, and 14 days after treatment (DAT). At 14 DAT (true leaf stage), each plant was infested with 10 greenbug aphids (Schizaphis graminum) of mixed stages. Plants were maintained on light carts in a randomized complete block design and bottom-watered as needed. Twelve replicates (pots) were prepared for plant emergence and five replicates were prepared for infestation. Live aphids were counted 4 DAI and the mean percent population reduction relative to the solvent blank control was calculated.

Rhizoctonia solani = assay: Test 10 - Control of Rhizoctonia solani, corn seed treatment, plant height; type: in vivo; settings: single active compound, 14 days
Protocol: Test 10—Control of Rhizoctonia solani
The compounds were dissolved in Acetone. Seeds of com were treated in a treater as standard equipment. The products and concentrations are listed below. After the treatment the seeds were sown in pots, and rye seeds (infected with Rhizoctonia solani) were placed next to the seeds (1 seed per corn seed).
After cultivation in the greenhouse for 14 days at 20° C. and a relative humidity of 70% the plant height of the plants were measured.

Altemaria solani = settings: single active compound, 7 days after inoculation
[4] = test system: Blumeria graminis f. sp. tritici; assay: Test 12 - Control of powdery mildew on wheat, seed treatment; type: in vivo; settings: single active, untreated 82% disease
Protocol: Test 12—Control of Powdery Mildew on Wheat Caused by Blumeria graminis f. sp. tritici
Seeds of wheat were treated in a treater as standard equipment. The products and concentrations are listed below. At the same day the plants were seeded in pots. 14 days later at 19° C. and 70% humidity the plants were inoculated with spores of Blumeria graminis f. sp. tritici (=syn. Erysiphe garminis f. sp. tritici) by shaking heavily infestated stock plants over the treated pots. After cultivation in the greenhouse for 7 days at 22-26° C. and a relative humidity between 60 to 90% the extent of fungal attack on the leaves was visually assessed as % diseased leaf area.

Puccinia recondita = assay: Test 11 - Control of brown rust on wheat, seed treatment; type: in vivo; settings: single active, untreated 90% disease
Protocol: Test 11—Control of Brown Rust on Wheat Caused by Puadnia recondita
Seeds of wheat were treated in a treater as standard equipment. The products and concentrations are listed below. At the same day the plants were seeded in pots. 14 days later at 19° C. and 70% humidity the plants were inoculated with spores of Puccinia recondita. To ensure the success the artificial inoculation, the plants were transferred to a humid chamber without light and a relative humidity of 95 to 99% and 20 to 24° C. for 24 h. Then the trial plants were cultivated for 6 days in a greenhouse chamber at 20-24° C. and a relative humidity between 65 and 70%. The extent of fungal attack on the leaves was visually assessed as % diseased leaf area.

CCN(C(=O)c1cnn(C2CC3(C2)OCCO3)c1C)c1ccnnc1 [Compound C-15]
mortality in comparison with untreated controls [1]: 75%

CCN(C(=O)c1cnn(C(C)C2CC23CC3)c1C)c1ccnnc1 (stereo not shown) [Compound C-26]
mortality in comparison with untreated controls [2]: at least 75%

CCN(C(=O)c1cnn(C(C)C(C)C)c1C)c1ccnnc1 (stereo not shown) [Compound I-674]
Observed efficacy (%) ([3]; table with fungicides F.1 to F.11, 33.7 g a.i./100 kg seeds): 21% | Observed efficacy (%) ([3]; table with insecticides A.1 to A.17, 33.7 g a.i./100 kg seeds): 28% | Observed efficacy (%) (Rhizoctonia solani; 63 g a.i./100 kg seeds): 5% | Observed efficacy (Altemaria solani; 63 ppm): 1% | Observed efficacy (%) ([4]; 4 g a.i./100 kg seeds): 9% | Observed efficacy (%) ([4]; 250 g a.i./100 kg seeds): 21% | Observed efficacy (%) (Puccinia recondita; 250 g a.i./100 kg seeds): 0%

CCN(C(=O)c1cnn(C(C)C(F)F)c1C)c1ccnnc1 (stereo not shown) [Compound I-680]
Observed efficacy (%) ([3]; table with fungicides F.1 to F.11, 2.9 g a.i./100 kg seeds): 7% | Observed efficacy (%) ([3]; table with insecticides A.1 to A.17, 2.9 g a.i./100 kg seeds): 23% | Observed efficacy (%) (Rhizoctonia solani; 63 g a.i./100 kg seeds): 0% | Observed efficacy (Altemaria solani; 63 ppm): 3% | Observed efficacy (%) ([4]; 250 g a.i./100 kg seeds): 15% | Observed efficacy (%) (Puccinia recondita; 250 g a.i./100 kg seeds): 0%

CCN(C(=O)c1cnn(C(C)C2(C#N)CC2)c1C)c1ccnnc1 (stereo not shown) [Compound I-698]
Observed efficacy (%) ([3]; table with fungicides F.1 to F.11, 150 g a.i./100 kg seeds): 51% | Observed efficacy (%) ([3]; table with insecticides A.1 to A.17, 150 g a.i./100 kg seeds): 74% | Observed efficacy (%) (Rhizoctonia solani; 250 g a.i./100 kg seeds): 3% | Observed efficacy (Altemaria solani; 1 ppm): 7% | Observed efficacy (Altemaria solani; 63 ppm): 3% | Observed efficacy (%) ([4]; 250 g a.i./100 kg seeds): 15% | Observed efficacy (%) (Puccinia recondita; 63 g a.i./100 kg seeds): 4%

N#Cc1c[nH]cc1-c1cccc2c1OC(F)(F)O2 [Fludioxonil, 4-(2,2-difluorobenzo[1,3]dioxol-4-yl)-1H-pyrrole-3-carbonitrile, reference compound]
Observed efficacy (Altemaria solani; 0.063 ppm): 26%

Cn1cc(C(=O)Nc2ccccc2-c2cc(F)c(F)c(F)c2)c(C(F)F)n1 [Fluxapyroxad, reference compound]
Observed efficacy (%) ([3]; table with fungicides F.1 to F.11, 20 g a.i./100 kg seeds): 0% | Observed efficacy (%) (Rhizoctonia solani; 4 g a.i./100 kg seeds): 74% | Observed efficacy (%) (Puccinia recondita; 1 g a.i./100 kg seeds): 16%

COCC(=O)N(c1c(C)cccc1C)[C@H](C)C(=O)OC [Mefenoxam, reference compound]
Observed efficacy (%) ([3]; table with fungicides F.1 to F.11, 15 g a.i./100 kg seeds): 6% | Observed efficacy (%) (Rhizoctonia solani; 63 g a.i./100 kg seeds): 0% | Observed efficacy (%) ([4]; 4 g a.i./100 kg seeds): 0%

COC(=O)N(OC)c1ccccc1COc1ccn(-c2ccc(Cl)cc2)n1 [Pyraclostrobin, methyl N-{2-[1-(4-chlorophenyl)-1H-pyrazol-3-yloxymethyl]phenyl}(N-methoxy)carbamate, reference compound]
Observed efficacy (%) (Rhizoctonia solani; 63 g a.i./100 kg seeds): 49% | Observed efficacy (Altemaria solani; 0.016 ppm): 16%

c1ccc2[nH]c(-c3cscn3)nc2c1 [Thiabendazol]
Observed efficacy (%) ([4]; 250 g a.i./100 kg seeds): 2%

CC1(C)CC/C(=C\c2ccc(Cl)cc2)C1(O)Cn1cncn1 (stereo not shown) [Triticonazol, (5E)-5-[(4-chlorophenyl)methylene]-2,2-dimethyl-1-(1H-1,2,4-triazol-1-ylmethyl)cyclopentanol, reference compound]
Observed efficacy (%) (Rhizoctonia solani; 16 g a.i./100 kg seeds): 20% | Observed efficacy (Altemaria solani; 0.063 ppm): 27% | Observed efficacy (%) ([4]; 16 g a.i./100 kg seeds): 60% | Observed efficacy (%) (Puccinia recondita; 16 g a.i./100 kg seeds): 49%

CNC(=O)c1cc(Cl)cc(C)c1NC(=O)c1cc(Br)nn1-c1ncccc1Cl [chloranthraniliprole]
Observed efficacy (%) ([3]; table with insecticides A.1 to A.17, 75 g a.i./100 kg seeds): 30%
